PubChem BioAssay AID1645862 (Buhrlage Lab, Dana-Farber Cancer Institute and Novartis …, 2021)
Active and inactive are the calls of the source. No rule for the calls is given here.

target: Ubiquitin carboxyl-terminal hydrolase 8 (Homo sapiens) (UniProt P40818); experiment: Ubiquitin-specific protease 8 inhibitors, concentration-effect, biochemical, validation of initial actives (AID 1645862); details: recombinant USP8 deubiquitinase activity assay;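 also: potency reflects inhibition of USP8 cleavage of a ubiquitin rhodamine substrate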
Sequence (P40818 whole entry, looked up): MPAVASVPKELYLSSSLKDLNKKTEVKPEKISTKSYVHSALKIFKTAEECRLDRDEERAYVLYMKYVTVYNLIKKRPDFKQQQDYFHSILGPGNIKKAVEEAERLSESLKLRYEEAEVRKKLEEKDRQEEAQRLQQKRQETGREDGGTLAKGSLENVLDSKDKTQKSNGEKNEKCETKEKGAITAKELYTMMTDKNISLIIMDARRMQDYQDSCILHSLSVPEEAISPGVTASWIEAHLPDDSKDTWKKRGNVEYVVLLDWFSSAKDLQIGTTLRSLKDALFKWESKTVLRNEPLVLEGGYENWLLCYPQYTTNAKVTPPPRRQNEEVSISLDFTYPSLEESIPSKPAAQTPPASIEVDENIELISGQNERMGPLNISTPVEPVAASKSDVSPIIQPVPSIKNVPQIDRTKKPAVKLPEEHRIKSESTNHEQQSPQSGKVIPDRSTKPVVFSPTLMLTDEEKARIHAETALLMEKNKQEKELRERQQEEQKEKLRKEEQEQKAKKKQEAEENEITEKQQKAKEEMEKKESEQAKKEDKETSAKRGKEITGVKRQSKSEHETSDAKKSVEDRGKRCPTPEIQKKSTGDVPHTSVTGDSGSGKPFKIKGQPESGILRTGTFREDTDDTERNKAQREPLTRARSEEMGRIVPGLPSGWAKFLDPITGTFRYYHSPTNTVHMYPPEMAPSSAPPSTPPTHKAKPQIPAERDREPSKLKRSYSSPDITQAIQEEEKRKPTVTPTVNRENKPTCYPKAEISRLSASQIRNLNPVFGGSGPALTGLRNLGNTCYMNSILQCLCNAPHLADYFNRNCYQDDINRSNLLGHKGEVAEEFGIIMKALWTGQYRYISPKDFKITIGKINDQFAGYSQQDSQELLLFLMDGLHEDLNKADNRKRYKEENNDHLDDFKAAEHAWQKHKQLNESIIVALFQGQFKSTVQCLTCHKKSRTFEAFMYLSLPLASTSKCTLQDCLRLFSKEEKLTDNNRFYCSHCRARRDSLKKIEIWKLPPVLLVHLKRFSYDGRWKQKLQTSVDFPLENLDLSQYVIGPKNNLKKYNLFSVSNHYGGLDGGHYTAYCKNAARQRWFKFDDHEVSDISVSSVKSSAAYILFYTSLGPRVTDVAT

| IC50 | SMILES |
| --- | --- |
| > 40 µM (inactive) | Cc1ccc(NC(=O)Nc2ccc(C)n(CC(=O)Nc3cccc(C)c3)c2=O)cc1 |
| > 40 µM (inactive) | O=C(Cn1c(-c2ccccc2)ncc(C(=O)NC2CC2)c1=O)Nc1ccccc1 |
| > 40 µM (inactive) | COc1cc(NC(=O)Cn2c(=O)n(-c3ccc(CC(=O)NCc4ccco4)cc3)c(=O)c3ccccc32)cc(OC)c1 |
| > 40 µM (inactive) | CS(=O)(=O)c1ccc2nc(N(Cc3cccnc3)C(=O)c3ccc4ccccc4c3)sc2c1 |
| > 40 µM (inactive) | Cn1nc(Cl)c(Cl)c1Oc1ccc(S(=O)(=O)Nc2ccc(Oc3ccc(C(F)(F)F)cn3)c(Cl)c2)cc1 |
| > 40 µM (inactive) | O=C(NC1CCCC1)c1ccc(-c2ccc(S(=O)(=O)NCc3ccccc3)cc2)cc1 |
| > 40 µM (inactive) | O=C(CCCCCn1c(=O)c2sccc2n(CC(=O)c2ccc(F)cc2)c1=O)NCc1ccccc1Cl |
| > 40 µM (inactive) | CCC(=O)Nc1nc2cc(NC(=O)Nc3ccc(C)cc3)ccc2s1 |
| > 40 µM (inactive) | O=C(c1cscn1)N1CCC2(CC1)CC1(CO2)Nc2ccccc2-n2cccc21 (stereo not drawn) |
| 28.1 µM | CCOc1ccc(-n2c(SCC(=O)Nc3ccc(C)cc3)nnc2-c2c[nH]c3ccccc23)cc1 |
| > 40 µM (inactive) | COc1ccc(-c2nc(-c3cc4cc(OC)ccc4[nH]c3=O)no2)cc1 |
| > 40 µM (inactive) | CCc1nc(SCC(=O)Nc2cc(Cl)ccc2C)c2oc3ccccc3c2n1 |
| > 40 µM (inactive) | Cc1cccc(OCC2=NN3C(=N)/C(=C\c4cc(C)n(-c5cccc(F)c5)c4C)C(=O)N=C3S2)c1 |
| > 40 µM (inactive) | O=C(CCc1nnc2n(Cc3ccccc3Cl)c(=O)c3ccccc3n12)NCc1ccccc1 |
| > 40 µM (inactive) | Cc1ccccc1-c1nc(-c2cn(CC(=O)Nc3ccccc3)cn2)no1 |
| > 40 µM (inactive) | COc1ccc(-c2nc(NCCCN3CCOCC3)c3ccccc3n2)cc1 |
| > 40 µM (inactive) | O[C@H]1[C@H](NCc2cccc(C(F)(F)F)c2)[C@@H](c2cncnc2)C[C@H]1O |
| > 40 µM (inactive) | COc1ccc(-c2n[nH]n3c2nc(=O)c2ccc(C(=O)NCc4ccco4)cc23)cc1 |
| > 40 µM (inactive) | COc1ccc(NC(=O)Cn2c(=O)n(Cc3ccco3)c(=O)c3ccc(C(=O)NC4CCCC4)cc32)cc1 |
| > 40 µM (inactive) | CCc1nnc(C(=O)Nc2ccc(C(=O)NCc3ccc(OC(C)C)cc3)cc2)s1 |
| > 40 µM (inactive) | O=C(Nc1ccc(Cn2cnc(-c3nc(-c4ccccc4)no3)c2)cc1)c1ccccc1F |
| > 40 µM (inactive) | O=C(Cn1c(=O)c2sccc2n(CC(=O)OCc2ccccc2)c1=O)NCc1ccccc1Cl |

| IC50 | SMILES |
| --- | --- |
| > 40 µM (inactive) | COc1ccc(CCC(=O)Nc2nnc(C3CC(=O)N(c4ccccc4)C3)s2)cc1 (stereo not drawn) |
| > 40 µM (inactive) | Cc1ccc(NC(=O)Cc2sc(Nc3ccc(C)cc3)nc2O)cc1 |
| > 40 µM (inactive) | COc1ccc(CCC(=O)Nc2nnc(C3CC(=O)N(c4ccc(C)cc4)C3)s2)cc1 (stereo not drawn) |
| > 40 µM (inactive) | Cc1cccc(NC(=O)CCCc2nnc3c(=O)n(-c4cccc(F)c4)ccn23)c1 |
| > 40 µM (inactive) | O=C(Cn1c(=O)c2ccccc2c2ccccc21)Nc1ccc2c(c1)OCO2 |
| > 40 µM (inactive) | COc1cc(C(=O)Nc2ccc(C#N)cc2)ccc1OCC(=O)Nc1ccccc1C(F)(F)F |
| 16 µM | COc1cc(-c2ccccc2)c(O)c(O)c1-c1ccccc1 |
| > 40 µM (inactive) | Cc1cccc(NC(=O)CSc2nc3c(cc2C#N)C(=O)CCC3)c1 |
| > 40 µM (inactive) | Cc1cccc(C(=O)OCC(=O)Nc2ccc3[nH]c(=O)[nH]c3c2)c1C |
| > 40 µM (inactive) | COc1ccc(CNC(=O)c2ccc3c(=O)nc4c(-c5cccc(C)c5)n[nH]n4c3c2)cc1 |
| > 40 µM (inactive) | O=C(Cn1c(=O)n(CCC(=O)N2CCc3ccccc3C2)c(=O)c2ccccc21)NCc1ccccc1Cl |
| > 40 µM (inactive) | Cc1cc2nc(SCC(=O)c3ccc(O)cc3)[nH]c2cc1C |
| 19.5 µM | CSc1ccc(CNC(=O)Cn2nc(C)c3c(C)n(-c4ccccc4)nc3c2=O)cc1 |
| > 40 µM (inactive) | O=C(COc1ccc(N2CC(C(=O)NCc3ccccc3)CC2=O)cc1)Nc1ccccc1Cl (stereo not drawn) |
| > 40 µM (inactive) | CCc1ccc(NC(=O)c2cc(C(F)(F)F)n(C)n2)cc1 |
| > 40 µM (inactive) | N#C/C(=C\c1ccc(OCc2cccc(C(=O)O)c2)cc1)c1ccc(F)cc1 |
| > 40 µM (inactive) | COc1c(C)c(OC(=O)c2c(C)c(C)c(OC(=O)c3c(C)c(C)c(O)c(C)c3O)c(C)c2OC)c(C)c(C)c1C(=O)O |
| > 40 µM (inactive) | COc1cccc(C(=O)Nc2ccc(SC(C(=O)Nc3ccccc3)c3ccccc3)cc2)c1 (stereo not drawn) |
| > 40 µM (inactive) | Fc1ccccc1-c1nc2c3cnn(-c4ccccc4)c3ncn2n1 |
| > 40 µM (inactive) | CCOC(=O)CCc1c(C)c2ccc(OCC(=O)c3ccc(-c4ccccc4)cc3)c(C)c2oc1=O |
| > 40 µM (inactive) | Cn1cc2cccc(NC(=O)c3ccc(F)cc3)c2n1 |
| > 40 µM (inactive) | Fc1cccc(Nc2ncnc3c2oc2ccccc23)c1 |

| IC50 | SMILES |
| --- | --- |
| > 40 µM (inactive) | O=C(CN(CC(=O)NCc1ccccc1Cl)c1nc2ccccc2s1)NCc1ccccc1Cl |
| > 40 µM (inactive) | O=C(Nc1nc2c(ccc3ccccc32)s1)c1cccc(Br)c1 |
| > 40 µM (inactive) | O=C(Nc1cccc(-c2nc3ncccc3o2)c1)c1ccc([N+](=O)[O-])cc1 |
| > 40 µM (inactive) | CC(C)Cc1nc2sc3c(SCC(=O)N4CCC(C)CC4)ncnc3c2c2c1COC(C)(C)C2 |
| > 40 µM (inactive) | O=S1(=O)CCN(Cc2cccnc2)c2c(F)nc(N3CCOCC3)c(F)c21 |
| > 40 µM (inactive) | Cc1nnc(-c2ccc3ccn(CC(=O)N4CCN(c5ccccc5)CC4)c3c2)o1 |
| > 40 µM (inactive) | Cc1ccc(C(=O)c2cn(CC(=O)Nc3ccccc3)c3ccc(C)cc3c2=O)cc1 |
| > 40 µM (inactive) | Cc1cc(N2CCN(c3ncccn3)CC2)nc2ccc(NC(=O)Cn3nc([N+](=O)[O-])c(Br)c3C)cc12 |
| > 40 µM (inactive) | Cc1ccc(C(=O)c2cn(CC(=O)Nc3ccccc3)c3ccccc3c2=O)cc1 |
| > 40 µM (inactive) | Cc1ccc(C(=O)NC(C)c2ccccc2)cc1NC(=O)c1nsc2ccccc12 (stereo not drawn) |
| > 40 µM (inactive) | CC(CCc1ccccc1)NC(=O)Cn1c(=O)c2cccn2c2ccccc21 (stereo not drawn) |
| > 40 µM (inactive) | Cc1cc(NC(=O)CSc2ncc(-c3cccc([N+](=O)[O-])c3)n2-c2cccc(Cl)c2)no1 |
| 39.2 µM | Cc1ccc(NC(=O)Nc2ccc(C)n(CC(=O)Nc3ccc(C)c(C)c3)c2=O)cc1 |
| > 40 µM (inactive) | O=C(CSc1ccc2nnc(-c3ccc(Cl)cc3)n2n1)N1CCCCC1 |
| > 40 µM (inactive) | CC(C)NC(=O)Cn1ccn2nc(-c3ccc(Cl)cc3)cc2c1=O |
| > 40 µM (inactive) | COC(=O)c1ccc(NC(=O)/C=C/c2ccc(F)cc2)cc1 |
| > 40 µM (inactive) | CCc1ccc(-n2cc(OC(C)=O)c3c2nc(C)n2c4ccccc4nc32)cc1 |
| > 40 µM (inactive) | COc1cccc(C2c3[nH]c4ccccc4c3C[C@@H]3C(=O)N(CC(O)c4ccccc4)CC(=O)N23)c1 (stereo partly drawn) |
| > 40 µM (inactive) | COc1cc2c(oc(=O)c3cc(C)cc(OC)c32)c2c([C@@H]3OC(C)[C@@H](O)[C@@](C)(O)C3O)ccc(O)c12 (stereo partly drawn) |
| 2.3 µM | O=c1c2ccccc2oc2nc(-c3cccs3)n(-c3ccccc3)c(=O)c12 |
| > 40 µM (inactive) | Cc1ccccc1NC(=O)CSC1=NC2(CCCCC2)Nc2ccccc21 |
| > 40 µM (inactive) | COc1ccc(OC)c(NC(=O)Cn2c(=O)n(CC3CCC(C(=O)NCCc4ccccc4)CC3)c(=O)c3ccccc32)c1 (stereo not drawn) |

| IC50 | SMILES |
| --- | --- |
| > 40 µM (inactive) | Cc1ccc(-n2c(=O)c3ccc(C(=O)NCc4ccco4)cc3n(CC(=O)NCCC3=CCCCC3)c2=O)cc1 |
| > 40 µM (inactive) | O=c1c2cc(Br)ccc2[nH]c(=S)n1Cc1cccnc1 |
| > 40 µM (inactive) | O=C(CCCn1c(=O)c2ccccc2n(CC(=O)c2ccc(Br)cc2)c1=O)NC1CCCC1 |
| > 40 µM (inactive) | Cc1c(OCC(=O)NCc2ccccc2Cl)ccc2c3c(c(=O)oc12)CCC3 |
| > 40 µM (inactive) | COc1cc2c(=O)n(CCC(=O)NC3CCCC3)c(=O)n(CC(=O)Nc3cccc(Cl)c3)c2cc1OC |
| > 40 µM (inactive) | CNC(=O)c1c2n(c3ncccc13)CCN(S(=O)(=O)c1ccc(-c3ccccc3)cc1)C2 |
| > 40 µM (inactive) | CC(C)(C)C(=O)Nc1ccc(C(=O)Nc2cccc(-c3nnc(-c4ccccc4)o3)c2)cc1 |
| 11.2 µM | O=c1[nH]c2ccc(S(=O)(=O)Nc3ccc(O)c4ccccc34)cc2[nH]1 |
| > 40 µM (inactive) | COC(=O)c1ccc(N2CCN(C(C)=O)CC2)c(NC(=O)COc2ccc([N+](=O)[O-])cc2)c1 |
| 19 µM | O=C1C=C(O)c2c(O)cccc2C1=O |
| > 40 µM (inactive) | O=S(=O)(Nc1ccc(Oc2ncnc3cc(Cl)ccc23)nc1)c1ccc(S(=O)(=O)c2ccccc2)s1 |
| > 40 µM (inactive) | N#Cc1cccc(NC(=O)COC(=O)c2n[nH]c3ccccc23)c1 |
| > 40 µM (inactive) | CCc1ccc(-n2c(C)cc(/C=C3\C(=N)N4N=CSC4=NC3=O)c2C)cc1 |
| > 40 µM (inactive) | COc1ccc(CNC(=O)Nc2cccc3ccccc23)cc1 |
| > 40 µM (inactive) | Cc1ccc(NC(=O)Cc2nnc3c(-c4nc(C5CC5)no4)cccn23)c(C)c1 |
| 38.2 µM | COc1ccc(CC(=O)Nc2c(NCc3ccccc3)c3ccccc3oc2=O)cc1 |
| > 40 µM (inactive) | O=C(CCc1ccc(F)cc1)N1CCOC(CCc2cc(=O)[nH]cn2)C1 (stereo not drawn) |
| > 40 µM (inactive) | COc1ccc(CC(=O)OCC(=O)N2c3ccccc3NC(=O)C2(C)C)cc1 |
| > 40 µM (inactive) | COC(=O)c1ccc(NC(=O)c2ccc(COc3cc(Cl)ccc3Cl)cc2)cc1 |
| 15.1 µM | COc1cn(-c2ccc(F)cc2)nc1C(=O)Nc1ccc(Cl)cc1Cl |
| > 40 µM (inactive) | O=[N+]([O-])c1ccc2c(c1)nc1n2CCN(Cc2ccco2)C1 |

| SMILES | IC50 |
| --- | --- |
| CC1Oc2cc3c(-c4c(O)cc(O)c5c(O)c6c(cc45)OC(C)C(C)C6=O)c(O)cc(O)c3c(O)c2C(=O)C1C (stereo not drawn) | > 40 µM (inactive) |
